# In PMC6288471 (Frontiers in Veterinary Science, 2018):
# How the values were obtained:
# [1] = Clinical pathologic testing: automated hemogram; assay type: in vivo; conditions: horses, 24 h after PO or IV administration
# Procedure: (§1) Automated hemogram results were obtained from the EDTA-anticoagulated blood with a hematology analyzer (ADVIA 2120, Siemens Healthcare Diagnostics Inc., Tarrytown, NJ, USA). To verify the automated platelet counts, modified Wright's-stained blood smears were evaluated for platelet clumps by trained medical technologists. Biochemical analysis for renal analytes (serum urea nitrogen and creatinine concentrations), liver enzymes (sorbitol dehydrogenase, glutamate dehydrogenase, aspartate aminotransferase and gamma glutamyl transferase activities), protein-related analytes (total protein, albumin, and globulin concentrations), and the acute phase protein, serum amyloid A, were performed with an automated chemistry analyzer (Hitachi P modular, Roche Diagnostics, Indianapolis, IN, USA) using manufacturer's reagents, with the exception of sorbitol dehydrogenase (Sigma-Aldrich), glutamate dehydrogenase (Randox Laboratories Ltd, Antrim, UK), and serum amyloid A (LZ test Eiken-SAA, Mast House, Merseyside, UK).
# [2] = Clinical pathologic testing: select biochemical tests; assay type: in vivo, horses; conditions: for SDH (sorbitol dehydrogenase), median (range): reference interval 0–11; for GLDH (glutamate dehydrogenase), median (range): reference interval 1–8; for UN (urea nitrogen), median (range): reference interval 3.9–10.0; for SAA (serum amyloid A), median (range): reference interval 5–20, 5 mg/L is the lower limit of detection; for GGT (gamma glutamyl transferase), median (range): reference interval 8–29; for GLOB (globulins), median (range): reference interval 24–44; for ALB (albumin), median (range): reference interval 30–37; for CREAT (creatinine), median (range): reference interval 53–141; for TP (total protein), median (range): reference interval 57–77
# Procedure: as §1
# [3] = Clinical observation for adverse effects / safety testing of a trial IV dose; assay type: in vivo, horses
# Procedure: The paste was transferred to a 60 mL syringe (Becton-Dickinson) and stored at room temperature until administration. For IV formulation, crushed tablets were dissolved in a vehicle consisting of 10% v/v N,N-dimethylacetamide (EMD Millipore, Billerica, MA, USA), 17% v/v propylene glycol (Sigma-Aldrich), 17% v/v dimethyl sulfoxide (DMSO, Sigma-Aldrich), and 56% v/v deionized water (MilliQ® water, Q-Pod®, EMD Millipore). After vigorous vortexing, the formulation was sterile filtered through a […] cellulose acetate filter (Corning Inc., Corning, NY, USA) then drawn into 60 mL syringes. The IV formulation was prepared 24 h before administration and stored at room temperature. […] To ensure that the vehicle was not toxic, safety testing was performed on a trial IV dose given to a different horse.
# Some individual horses had test results that were slightly above or below the established reference intervals, but this likely represented normal biological variability. […] Again, we attributed this to normal biological variation.
# [4] = rabbits, cited from earlier work
# [5] = test system: plasma protein; conditions: rabbits; cited from earlier work
smiles,measurement,setting,value
COc1ccc(-n2nc(C(N)=O)c3c2C(=O)N(c2ccc(N4CCCCC4=O)cc2)CC3)cc1 [apixaban],changes in hematologic test results,[1],no significant changes
same,"SDH (sorbitol dehydrogenase), median (range)","[2]; IV, T0 (before)",4 (3–4) U/L
same,"GLDH (glutamate dehydrogenase), median (range)","[2]; IV, T0 (before)",4 (3–4) U/L
same,"UN (urea nitrogen), median (range)","[2]; IV, T0 (before)",6.8 (6.1–7.8) mmol/L
same,"SAA (serum amyloid A), median (range)","[2]; IV, T0 (before)",5 (5–9) mg/L
same,"GGT (gamma glutamyl transferase), median (range)","[2]; IV, T0 (before)",11 (10–13) U/L
same,"GLOB (globulins), median (range)","[2]; IV, T0 (before)",36 (32–38) g/L
same,"ALB (albumin), median (range)","[2]; IV, T0 (before)",32 (30–34) g/L
same,"CREAT (creatinine), median (range)","[2]; IV, T0 (before)",106 (97–106) μmol/L
same,"TP (total protein), median (range)","[2]; IV, T0 (before)",68 (66–71) g/L
same,"SDH (sorbitol dehydrogenase), median (range)","[2]; IV, T24",3 (2–4) U/L
same,"GLDH (glutamate dehydrogenase), median (range)","[2]; IV, T24",3 (3–5) U/L
same,"UN (urea nitrogen), median (range)","[2]; IV, T24",5.7 (5.4–7.5) mmol/L
same,"SAA (serum amyloid A), median (range)","[2]; IV, T24",8 (5–12) mg/L
same,"GGT (gamma glutamyl transferase), median (range)","[2]; IV, T24",11 (10–13) U/L
same,"GLOB (globulins), median (range)","[2]; IV, T24",37 (32–40) g/L
same,"ALB (albumin), median (range)","[2]; IV, T24",32 (30–35) g/L
same,"CREAT (creatinine), median (range)","[2]; IV, T24",115 (106–115) μmol/L
same,"TP (total protein), median (range)","[2]; IV, T24",68 (67–72) g/L
same,"SDH (sorbitol dehydrogenase), median (range)","[2]; PO, T0 (before)",5 (4–10) U/L
same,"GLDH (glutamate dehydrogenase), median (range)","[2]; PO, T0 (before)",6 (4–10) U/L
same,"UN (urea nitrogen), median (range)","[2]; PO, T0 (before)",6.4 (5.4–7.1) mmol/L
same,"SAA (serum amyloid A), median (range)","[2]; PO, T0 (before)",5 (5–7) mg/L
same,"GGT (gamma glutamyl transferase), median (range)","[2]; PO, T0 (before)",12 (7–13) U/L
same,"GLOB (globulins), median (range)","[2]; PO, T0 (before)",35 (30–38) g/L
same,"ALB (albumin), median (range)","[2]; PO, T0 (before)",32 (29–32) g/L
same,"CREAT (creatinine), median (range)","[2]; PO, T0 (before)",97 (88–106) μmol/L
same,"TP (total protein), median (range)","[2]; PO, T0 (before)",67 (62–70) g/L
same,"SDH (sorbitol dehydrogenase), median (range)","[2]; PO, T24",4 (3–5) U/L
same,"GLDH (glutamate dehydrogenase), median (range)","[2]; PO, T24",4 (4–7) U/L
same,"UN (urea nitrogen), median (range)","[2]; PO, T24",5.7 (4.6–6.4) mmol/L
same,"SAA (serum amyloid A), median (range)","[2]; PO, T24",5 (5–5) mg/L
same,"GGT (gamma glutamyl transferase), median (range)","[2]; PO, T24",12 (9–13) U/L
same,"GLOB (globulins), median (range)","[2]; PO, T24",36 (30–39) g/L
same,"ALB (albumin), median (range)","[2]; PO, T24",32 (29–33) g/L
same,"CREAT (creatinine), median (range)","[2]; PO, T24",106 (97–115) μmol/L
same,"TP (total protein), median (range)","[2]; PO, T24",65 (63–72) g/L
same,changes in chosen biochemical test results,"[2]; horses, 24 h after PO or IV administration",no significant changes
same,clinically apparent adverse effects,"[3]; horses, oral and IV formulations",no clinically apparent adverse effects
same,changes in clinical pathologic test results,"[3]; trial IV dose in a different horse, 24 h after IV bolus",no changes
same,adverse clinical reactions,[3]; trial IV dose of dissolved apixaban in a different horse,no adverse clinical reactions
same,half-life,[4]; 2.5 mg/kg IV dose,36 min
same,oral absorption,[4]; 10 mg/kg,3%
same,apixaban protein bound,[5],~ 60%
